Source: US8188064B2, “Vitamin D analogs for obesity prevention and treatment” (Wisconsin Alumni Research Foundation, priority 2003, dated 2012)
“Also recorded” adds a separate entry of the source.

Experiments:
[1] = Intestinal calcium transport (everted gut sac); format: in vivo; settings: result in words, vitamin D deficient rat model, compared to 1α,25(OH)2D3
Description: (§1) Male, weanling Sprague-Dawley rats were placed on Diet 11 (0.47% Ca) diet+AEK for one week followed by Diet 11 (0.02% Ca)+AEK for 3 weeks. The rats were then switched to a diet containing 0.47% Ca for one week followed by two weeks on a diet containing 0.02% Ca. Dose administration began during the last week on 0.02% calcium diet. Four consecutive ip doses were given approximately 24 hours apart. Twenty-four hours after the last dose, blood was collected from the severed neck and the concentration of serum calcium determined as a measure of bone calcium mobilization. The first 10 cm of the intestine was also collected for intestinal calcium transport analysis using the everted gut sac method.

[2] = system: Human promyelocytic leukemia (HL60) cells; experiment: HL-60 differentiation (nitro blue tetrazolium reduction); format: cell-based; settings: result in words
Description: The study drugs were dissolved in ethanol and the concentrations determined using UV spectrophotometry. Serial dilutions were prepared so that a range of drug concentrations could be tested without changing the final concentration of ethanol (≦0.2%) present in the cell cultures.
Human promyelocytic leukemia (HL60) cells were grown in RPMI-1640 medium containing 10% fetal bovine serum. The cells were incubated at 37° C. in the presence of 5% CO2.
HL60 cells were plated at 1.2×10^5 cells/ml. Eighteen hours after plating, cells in duplicate were treated with drug. Four days later, the cells were harvested and a nitro blue tetrazolium reduction assay was performed (Collins et al., 1979; J. Exp. Med. 149:969-974). The percentage of differentiated cells was determined by counting a total of 200 cells and recording the number that contained intracellular black-blue formazan deposits. Verification of differentiation to monocytic cells was determined by measuring phagocytic activity (data not shown).

[3] = system: 3T3-L1 cells; experiment: Inhibition of 3T3-L1 differentiation into mature adipocytes (Oil-Red-O staining); format: cell-based, murine; settings: for inhibition of differentiation of 3T3-L1 cells into mature adipocytes (Oil-Red-O staining): result in words, MDI-treated cells, staining at day 10
Description: Various 19-nor vitamin D analogs were or are tested and found to inhibit the differentiation of preadipocytes into mature adipocytes, to reduce body fat, to inhibit an increase in PPARγ, C/EBPα, and/or SCD-1 gene transcription and to be useful in treating and preventing obesity both in vivo and in vitro. The undifferentiated preadipocyte 3T3-L1 subline, a derivative of the original mouse fibroblast cell line, is one of the most accepted models for investigating the adipogenesis process and was used for the analysis. Two days after reaching confluence, 3T3-L1 cells can be induced to differentiate into adipocytes (see Mackall, J. C. et al. J. Biol. Chem., 251(20), 6462-6464 (1976)) with the addition of a cAMP phosphodiesterase inhibitor, dexamethasone (a glucocortoid), and insulin. […] The induction of PPARγ and C/EBPα is required for adipocyte differentiation. […] SCD-1 is an enzyme found in adipocytes that converts saturated fatty acids (C16 and C18) to their monounsaturated forms (C16:1 and C18:1). The deposition of triglyceride can also be detected as early as 3 days, and by the 7th to 14th days post-confluence, greater than 80% of the cells in the monolayer stain positively with Oil-red-O.

[4] = system: SCD-1 mRNA; experiment: Inhibition of SCD-1 mRNA induction in 3T3-L1 cells (RT-PCR); format: cell-based, murine; settings: for inhibition of SCD-1 mRNA induction: result in words, MDI-treated 3T3-L1 cells
Excerpt: Chomczynski, P. et al., Anal. […] NO: 4)).

[5] = molecular target: T1, full-length recombinant rat vitamin D receptor (Rattus norvegicus, UniProt P13053); experiment: Vitamin D receptor binding (competition with 3H-1,25(OH)2D3); settings: for binding to the vitamin D receptor, compared to 1α,25(OH)2D3: result in words, competition for tritiated hormone binding
T1 construct: Full-length recombinant rat receptor was expressed in E. coli; histidine tag (C); made in house; host or cells: E. coli BL21(DE3) Codon Plus RIL
T1 sequence (P13053 1-423): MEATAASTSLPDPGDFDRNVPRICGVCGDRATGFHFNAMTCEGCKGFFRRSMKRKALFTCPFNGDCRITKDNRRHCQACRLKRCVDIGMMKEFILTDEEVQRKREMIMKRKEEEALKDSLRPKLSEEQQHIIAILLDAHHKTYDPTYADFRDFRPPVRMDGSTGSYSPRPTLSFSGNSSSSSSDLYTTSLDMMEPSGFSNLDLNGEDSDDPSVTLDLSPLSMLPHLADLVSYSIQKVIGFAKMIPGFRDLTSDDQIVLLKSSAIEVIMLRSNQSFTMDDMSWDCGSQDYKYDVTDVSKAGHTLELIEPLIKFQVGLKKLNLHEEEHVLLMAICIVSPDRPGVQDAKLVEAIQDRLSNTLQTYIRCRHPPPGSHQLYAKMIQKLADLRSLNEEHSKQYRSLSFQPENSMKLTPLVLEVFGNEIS
Description: Full-length recombinant rat receptor was expressed in E. coli BL21(DE3) Codon Plus RIL cells and purified to homogeneity using two different column chromatography systems. The first system was a nickel affinity resin that utilizes the C-terminal histidine tag on this protein. The protein that was eluted from this resin was further purified using ion exchange chromatography (S-Sepharose Fast Flow). Aliquots of the purified protein were quick frozen in liquid nitrogen and stored at −80° C. until use. For use in binding assays, the protein was diluted in TEDK50 (50 mM Tris, 1.5 mM EDTA, pH 7.4, 5 mM DTT, 150 mM KCl) with 0.1% Chaps detergent. The receptor protein and ligand concentration was optimized such that no more than 20% of the added radiolabeled ligand was bound to the receptor.
Unlabeled ligands were dissolved in ethanol and the concentrations determined using UV spectrophotometry (1,25(OH)2D3: molar extinction coefficient=18,200 and λmax=265 nm; Analogs: molar extinction coefficient=42,000 and λmax=252 nm). Radiolabeled ligand (^3H-1,25(OH)2D3, ˜159 Ci/mmole) was added in ethanol at a final concentration of 1 nM.
Radiolabeled and unlabeled ligands were added to 100 mcl of the diluted protein at a final ethanol concentration of ≦10%, mixed and incubated overnight on ice to reach binding equilibrium. The following day, 100 mcl of hydroxylapatite slurry (50%) was added to each tube and mixed at 10-minute intervals for 30 minutes. The hydroxylapaptite was collected by centrifugation and then washed three times with Tris-EDTA buffer (50 mM Tris, 1.5 mM EDTA, pH 7.4) containing 0.5% Titron X-100. After the final wash, the pellets were transferred to scintillation vials containing 4 ml of Biosafe II scintillation cocktail, mixed and placed in a scintillation counter. Total binding was determined from the tubes containing only radiolabeled ligand.

[6] = system: 24-hydroxylase (24Ohase) gene promoter in ROS 17/2.8 (bone) cells; experiment: In vitro transcription assay (luciferase reporter); format: cell-based; settings: result in words
Description: Transcription activity was measured in ROS 17/2.8 (bone) cells that were stably transfected with a 24-hydroxylase (24Ohase) gene promoter upstream of a luciferase reporter gene (Arbour et al., 1998). Cells were given a range of doses. Sixteen hours after dosing the cells were harvested and luciferase activities were measured using a luminometer. RLU=relative luciferase units.

[7] = Bone calcium mobilization (serum calcium on low calcium diet); format: in vivo, rat; settings: result in words; vitamin D deficient rat model, compared to 1α,25(OH)2D3
Description: as §1

| binding to the vitamin D receptor, compared to 1α,25(OH)2D3 [5] | intestinal calcium transport activity [1] | SMILES | differentiation of HL-60 cells, compared to 1α,25(OH)2D3 [2] | inhibition of differentiation of 3T3-L1 cells into mature adipocytes (Oil-Red-O staining) [3] | transcriptional activity in bone cells, compared to 1α,25(OH)2D3 [6] | bone calcium mobilization activity [7] | other results |
| --- | --- | --- | --- | --- | --- | --- | --- |
| as or nearly effective as calcitriol | – | C=C1[C@H](O)CC(=C/C=C2\CCC[C@]3(C)[C@@H]([C@@H](C)CCCC)CC[C@@H]23)C[C@H]1O [(20S)OM] | almost as potent | still possess activity | about the same transcriptional activity | very little bone calcium mobilization activity | intestinal calcium transport activity ([1]; listed as (20S)-OM): less activity; intestinal calcium transport activity ([1]; listed as OM): very little activity; inhibition of differentiation of 3T3-L1 cells into mature adipocytes (Oil-Red-O staining) ([3]; listed as OM): increased slightly; inhibition of SCD-1 mRNA induction [4]: still possess activity; inhibition of SCD-1 mRNA induction ([4]; listed as OM): increased slightly; binding to the vitamin D receptor, compared to 1α,25(OH)2D3 ([5]; listed as OM): bound equally well |
| bound equally well | very little activity | C=C1[C@H](O)CC(=C/C=C2\CCC[C@@H]3[C@@H](C(C)C)CC[C@@H]23)C[C@H]1O [18,19-dinor-2MP, 2-methylene-18,19-dinor-1α-hydroxyhomopregnacalciferol] | almost as potent | – | about the same transcriptional activity | very little bone calcium mobilization activity | – |
| – | active | C=C1[C@H](O)CC(=C/C=C2\CCC[C@]3(C)[C@@H]([C@@H](C)CCCC(C)(C)C)CC[C@@H]23)C[C@H]1O [TMM] | – | inhibit; also recorded: effective | – | active | – |
| bound equally well | – | CCCC[C@H](C)[C@H]1CC[C@H]2/C(=C/C=C3C[C@@H](O)C(C)[C@H](O)C3)CCC[C@]12C (stereo partly drawn) [2α-methyl-19,26,27-trinor, 2α-methyl-19,26,27-trinor-(20S)-1α-hydroxyvitamin D3] | almost as potent | – | similar | very little bone calcium mobilization activity | – |
| – | less active | C=C1[C@H](O)CC(=C/C=C2\CCC[C@]3(C)[C@@H]([C@H](C)/C=C/[C@@H](C)C(C)(C)O)CC[C@@H]23)C[C@H]1O [(24epi)D2] | – | improved; also recorded: active | – | less active | higher affinity binding to the vitamin D receptor than the native hormone ([5]; higher affinity than native hormone): approximately 0.5 log units |
| as or nearly effective as calcitriol | little, if any, activity | C=C1[C@H](O)CC(=C/C=C2\CCC[C@]3(C)[C@@H](CC)CC[C@@H]23)C[C@H]1O [2-Mpregna] | – | nearly as potent as the native hormone | – | little, if any, activity | inhibition of differentiation of 3T3-L1 cells into mature adipocytes (Oil-Red-O staining) ([3]; listed as 2Mpregna): still active; inhibition of differentiation of MDI-treated 3T3-L1 cells (oil-red-O staining) ([3]; tested at 1×10^−8.5 M): active; inhibition of SCD-1 mRNA induction [4]: nearly as potent as the native hormone; inhibition of SCD-1 mRNA induction ([4]; listed as 2Mpregna): still active; inhibition of SCD1 mRNA induction ([4]; tested at 1×10^−8.5 M): active |
| binds poorly, if at all | – | C=C1[C@H](O)C/C(=C/C=C2\CCC[C@]3(C)[C@@H]([C@@H](C)CC)CC[C@@H]23)C[C@@H]1O [(1β,20S)2MbisP, (20S)-1β-hydroxy-2-methylene-19-nor-bishomo-pregnacalciferol, reference compound] | – | – | – | – | inhibition of differentiation of 3T3-L1 cells into mature adipocytes (Oil-Red-O staining) ([3]; listed as 1-(20S)2-MbisP): unable to inhibit; inhibition of differentiation of 3T3-L1 cells into mature adipocytes (Oil-Red-O staining) ([3]; listed as (1βOH, 20S)2M-BisP): ineffective; inhibition of SCD-1 mRNA induction ([4]; listed as 1-(20S)2-MbisP): unable to inhibit; inhibition of SCD-1 mRNA induction ([4]; listed as (1βOH, 20S)2M-BisP): ineffective |
| as well as the native hormone | – | C[C@H](/C=C/[C@H](C)C(C)(C)O)[C@H]1CC[C@H]2/C(=C/C=C3C[C@@H](O)C[C@H](O)C3)CCC[C@]12C [19-nor-1α,25-dihydroxyvitamin D2, reference compound] | – | equivalent in potency; also recorded: active | – | very low bone calcium mobilizing activity | inhibition of differentiation of 3T3-L1 cells into mature adipocytes (Oil-Red-O staining) ([3]; listed as 19-nor-1α,25-dihydroxyvitamin D2): more active |
